Reference: ChEMBL document CHEMBL1201862, “PubChem BioAssay data set” (2004)
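Compound exposure: 48 hours, 5 concentrations, 96-well plates. GI50 is the concentration that inhibits growth by half.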 Calls of active or inactive are those of the source. Cut-off read from the data, not from the text of the source: active = GI50 up to about 1.1 µM and inactive = higher.

Key:
Assay in all cases: DTP human tumour cell line panel, 48 h
NCI/ADR-RES = tested on: NCI/ADR-RES
NCI-H522 = tested on: NCI-H522
UO-31 = tested on: UO-31
786-0 = tested on: 786-0
SK-MEL-5 = tested on: SK-MEL-5
A498 = tested on: A498
TK-10 = tested on: TK-10
RXF 393 = tested on: RXF 393
MCF7 = tested on: MCF7
MDA-MB-231 = tested on: MDA-MB-231
NCI-H226 = tested on: NCI-H226
A549 = tested on: A549
U-251 = tested on: U-251
PC-3 = tested on: PC-3
SF-268 = tested on: SF-268
SK-MEL-2 = tested on: SK-MEL-2
SNB-19 = tested on: SNB-19
SK-OV-3 = tested on: SK-OV-3
HL-60 = tested on: HL-60

SMILES | GI50 (NCI/ADR-RES) | GI50 (NCI-H522) | GI50 (UO-31) | GI50 (786-0) | GI50 (SK-MEL-5) | GI50 (A498) | GI50 (TK-10) | GI50 (RXF 393) | GI50 (MCF7) | GI50 (MDA-MB-231) | GI50 (NCI-H226) | GI50 (A549) | GI50 (U-251) | GI50 (PC-3) | GI50 (SF-268) | GI50 (SK-MEL-2) | GI50 (SNB-19) | GI50 (SK-OV-3) | GI50 (HL-60)
C=C1C(=O)OC2C1C(OC(=O)/C(C)=C/C)CC(O)(CCl)C1C(O)C=C(C)C21O (centres undefined) | 17.9 µM (inactive) | 1.43 µM (inactive) | 15 µM (inactive) | 4.88 µM (inactive) | 11 µM (inactive) | 23.6 µM (inactive) | 14.1 µM (inactive) | 5.93 µM (inactive) | 4.52 µM (inactive) | 15.7 µM (inactive) | 19.1 µM (inactive) | 28.7 µM (inactive) | 27.5 µM (inactive) | 21.7 µM (inactive) | 22.9 µM (inactive) | 21 µM (inactive) | > 43.8 µM (inactive) | 47.9 µM (inactive) | 2.28 µM (inactive)
O=[N+]([O-])c1ccc(Sc2c3ccccc3nc3ccccc23)cn1 | 39.5 µM (inactive) | 4.08 µM (inactive) | 15.3 µM (inactive) | 2.59 µM (inactive) | 35.1 µM (inactive) | > 100 µM (inactive) | 10.1 µM (inactive) | 31.8 µM (inactive) | 4.48 µM (inactive) | 18 µM (inactive) | > 100 µM (inactive) | > 100 µM (inactive) | > 44.2 µM (inactive) | 15.5 µM (inactive) | 20.8 µM (inactive) | 25.4 µM (inactive) | 24.5 µM (inactive) | > 53.8 µM (inactive) | 10.8 µM (inactive)
O=[N+]([O-])c1nccn1CCCNc1ccnc2cc(Cl)ccc12 | > 96.6 µM (inactive) | 2.25 µM (inactive) | 5.4 µM (inactive) | 3.76 µM (inactive) | 2.29 µM (inactive) | 5.08 µM (inactive) | 3.53 µM (inactive) | 4.26 µM (inactive) | 50 µM (inactive) | 6.59 µM (inactive) | 3.27 µM (inactive) | 5.43 µM (inactive) | 6.82 µM (inactive) | 5.09 µM (inactive) | 7.48 µM (inactive) | 4.29 µM (inactive) | 4.06 µM (inactive) | 6.49 µM (inactive) | 5 µM (inactive)
CCOC(CN(C)C(=O)Nc1ccc(Cl)c(Cl)c1)OCC | > 10 µM (inactive) | > 10 µM (inactive) | > 10 µM (inactive) | > 10 µM (inactive) | > 10 µM (inactive) | > 10 µM (inactive) | > 10 µM (inactive) | > 10 µM (inactive) | > 10 µM (inactive) | > 10 µM (inactive) | > 10 µM (inactive) | > 10 µM (inactive) | > 10 µM (inactive) | > 10 µM (inactive) | > 10 µM (inactive) | > 10 µM (inactive) | > 10 µM (inactive) | > 10 µM (inactive) | > 10 µM (inactive)
CC1CNC(c2cccc(-c3nc(-c4cccc(C5=NC(C)CN5)c4)nc(N(C)C)n3)c2)=N1 (centres undefined) | 16.5 µM (inactive) | 0.757 µM (active) | 3.77 µM (inactive) | 1.53 µM (inactive) | 2.59 µM (inactive) | 2.05 µM (inactive) | 2.78 µM (inactive) | 3.21 µM (inactive) | 0.78 µM (active) | 1.32 µM (inactive) | 1.9 µM (inactive) | 2.69 µM (inactive) | 0.653 µM (active) | 0.671 µM (active) | 2.06 µM (inactive) | 2.02 µM (inactive) | 0.752 µM (active) | 1.58 µM (inactive) | 2.02 µM (inactive)
CC1OCC2OC(C)OC(C3C4=C(CC(C)(C)CC4=O)OC4=C3C(=O)CC(C)(C)C4)C2O1 (centres undefined) | > 100 µM (inactive) | > 100 µM (inactive) | > 100 µM (inactive) | > 100 µM (inactive) | > 100 µM (inactive) | > 100 µM (inactive) | > 100 µM (inactive) | > 100 µM (inactive) | > 100 µM (inactive) | > 100 µM (inactive) | > 100 µM (inactive) | > 100 µM (inactive) | – | > 100 µM (inactive) | > 100 µM (inactive) | > 100 µM (inactive) | > 100 µM (inactive) | > 100 µM (inactive) | > 100 µM (inactive)
Nc1c2c(nc3cc(F)c(F)cc13)CCC2 | 60.1 µM (inactive) | 72.8 µM (inactive) | 4.05 µM (inactive) | 45.6 µM (inactive) | 42.7 µM (inactive) | 24.7 µM (inactive) | 26.4 µM (inactive) | 33.5 µM (inactive) | 33.3 µM (inactive) | 56.1 µM (inactive) | 33.3 µM (inactive) | 42.2 µM (inactive) | 56.6 µM (inactive) | 39.8 µM (inactive) | 58.5 µM (inactive) | > 100 µM (inactive) | 48.6 µM (inactive) | 62.1 µM (inactive) | 2.82 µM (inactive)
CCOC(=O)C(NC(C)=O)(Nc1ccc(S(N)(=O)=O)cc1)C(F)(F)F (centres undefined) | > 100 µM (inactive) | > 100 µM (inactive) | > 100 µM (inactive) | > 100 µM (inactive) | > 100 µM (inactive) | > 100 µM (inactive) | > 100 µM (inactive) | > 100 µM (inactive) | > 100 µM (inactive) | > 100 µM (inactive) | > 100 µM (inactive) | > 100 µM (inactive) | > 100 µM (inactive) | > 100 µM (inactive) | > 100 µM (inactive) | > 100 µM (inactive) | > 100 µM (inactive) | > 100 µM (inactive) | > 100 µM (inactive)
C/C=C/C=C\C=C/C(O)C(C)C(CCC(C)C1OC(=O)C=CC1C)OP(=O)(O)O (centres undefined) | 0.897 µM (active) | 1.35 µM (inactive) | 0.399 µM (active) | 0.404 µM (active) | 0.658 µM (active) | 0.22 µM (active) | 0.618 µM (active) | 0.527 µM (active) | 0.272 µM (active) | 35.8 µM (inactive) | 0.614 µM (active) | 0.538 µM (active) | 0.893 µM (active) | 0.23 µM (active) | 0.59 µM (active) | 0.692 µM (active) | 0.562 µM (active) | 0.502 µM (active) | 0.0425 µM (active)
NC(=O)NC(=O)C1CCCCC1C(=O)O (centres undefined) | > 100 µM (inactive) | > 100 µM (inactive) | > 100 µM (inactive) | > 100 µM (inactive) | > 100 µM (inactive) | > 100 µM (inactive) | > 100 µM (inactive) | > 100 µM (inactive) | > 100 µM (inactive) | > 100 µM (inactive) | > 100 µM (inactive) | > 100 µM (inactive) | > 100 µM (inactive) | > 100 µM (inactive) | > 100 µM (inactive) | > 100 µM (inactive) | > 100 µM (inactive) | > 100 µM (inactive) | > 100 µM (inactive)
CCc1nc2c(c(N(C)C)c1C(=O)OC)CCc1ccccc1-2 | 29.6 µM (inactive) | 17.9 µM (inactive) | 37.4 µM (inactive) | 39.5 µM (inactive) | 17 µM (inactive) | 20.2 µM (inactive) | 35.5 µM (inactive) | 31.2 µM (inactive) | 14.4 µM (inactive) | 23.5 µM (inactive) | 21.5 µM (inactive) | 31 µM (inactive) | 30.9 µM (inactive) | 18 µM (inactive) | 47.1 µM (inactive) | 17.8 µM (inactive) | 38.4 µM (inactive) | 13.8 µM (inactive) | 2.86 µM (inactive)
CC1c2cc(c3c(c2O)CN([C@@H](C)C2CCCCC2)CO3)C(C)c2cc(c3c(c2O)CN([C@@H](C)C2CCCCC2)CO3)C(C)c2cc(c3c(c2O)CN([C@@H](C)C2CCCCC2)CO3)C(C)c2cc1c1c(c2O)CN([C@@H](C)C2CCCCC2)CO1 (some centres undefined) | 1.27 µM (inactive) | 0.607 µM (active) | 1.81 µM (inactive) | 1.13 µM (inactive) | 1.84 µM (inactive) | 2.06 µM (inactive) | 1.73 µM (inactive) | 2.44 µM (inactive) | 1.36 µM (inactive) | 1.31 µM (inactive) | 0.979 µM (active) | 1.84 µM (inactive) | 0.964 µM (active) | 1.77 µM (inactive) | 1.33 µM (inactive) | 2.11 µM (inactive) | 1.61 µM (inactive) | 1.48 µM (inactive) | 0.152 µM (active)
CN(C)Cc1ccc(C(C)(C)C)cc1-c1cc(C(C)(C)C)ccc1CN(C)C | > 100 µM (inactive) | 50.5 µM (inactive) | 42.7 µM (inactive) | 70.5 µM (inactive) | 32.4 µM (inactive) | 28.2 µM (inactive) | > 100 µM (inactive) | 97.1 µM (inactive) | 37.6 µM (inactive) | 70.5 µM (inactive) | > 100 µM (inactive) | 93.5 µM (inactive) | 42.7 µM (inactive) | 27.7 µM (inactive) | > 100 µM (inactive) | 76.9 µM (inactive) | > 100 µM (inactive) | > 100 µM (inactive) | 86.9 µM (inactive)
Cc1ccc(-c2cc(-c3ccc(Cl)cc3)nc(/N=C3\C(=O)N(CN4CCOCC4)c4ccccc43)n2)cc1 | 27.2 µM (inactive) | 14.3 µM (inactive) | – | 21.4 µM (inactive) | 17.6 µM (inactive) | 18.8 µM (inactive) | 31 µM (inactive) | 16.4 µM (inactive) | 19 µM (inactive) | 33.3 µM (inactive) | 35.6 µM (inactive) | 17.5 µM (inactive) | 23.7 µM (inactive) | 26.5 µM (inactive) | 30.4 µM (inactive) | 18.3 µM (inactive) | 15.1 µM (inactive) | 31.1 µM (inactive) | 9.02 µM (inactive)
